From patent publication US20250115634A1, “LIGAND, METHOD FOR PREPARING SAME, AND USE THEREOF” (priority 2022, published 2025)
pKd: −log10 of the molar value.

Experiments:
ASGPR receptor [1] = molecular target: T1, ASGPR receptor (Mus musculus, UniProt P24721+P34927); experiment: Binding of Cy5-labelled ligands to ASGPR on primary mouse liver cells (Kd); details: C57 mouse primary liver cells, incubated 37° C. in the dark for 30 min, trypsin to remove surface fluorescence
T1 construct: C57 mouse primary liver cells were isolated; endogenous in cells; host or cells: C57 mouse primary liver cells
T1 sequence (P34927 1-284): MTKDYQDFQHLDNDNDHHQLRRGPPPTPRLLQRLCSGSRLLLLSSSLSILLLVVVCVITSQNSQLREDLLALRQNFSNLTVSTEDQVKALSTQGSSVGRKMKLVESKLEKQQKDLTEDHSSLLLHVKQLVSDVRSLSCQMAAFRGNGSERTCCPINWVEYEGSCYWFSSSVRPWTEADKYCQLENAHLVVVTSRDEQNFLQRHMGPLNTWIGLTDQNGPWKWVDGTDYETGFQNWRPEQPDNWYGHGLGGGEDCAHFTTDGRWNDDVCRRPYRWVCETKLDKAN
T1 sequence (P24721 1-301): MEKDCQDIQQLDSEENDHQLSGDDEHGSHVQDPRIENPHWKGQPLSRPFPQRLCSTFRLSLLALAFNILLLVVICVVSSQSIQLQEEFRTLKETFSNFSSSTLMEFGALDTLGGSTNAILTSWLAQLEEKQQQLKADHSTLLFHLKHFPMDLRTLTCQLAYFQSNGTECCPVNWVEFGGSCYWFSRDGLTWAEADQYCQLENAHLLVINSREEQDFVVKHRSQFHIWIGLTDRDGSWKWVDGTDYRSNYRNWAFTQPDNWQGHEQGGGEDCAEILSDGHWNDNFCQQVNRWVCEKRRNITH
Method: (§1) The binding rate of the ligand of the present disclosure to the ASGPR receptor of liver cancer cells was tested, with the ligand with hepatocellular ASGPR-targeting property, loaded in Inclisiran, a small interfering nucleic acid drug marketed by Alnylam, as a positive control (PC).
The ligand-receptor dissociation constant (Kd, which is the drug concentration required for half of the maximum effect, i.e. 50% of the receptors are occupied) was used as a measure of ligand-receptor binding capacity; and the lower the Kd value, the higher the binding capacity.
C57 mouse primary liver cells were isolated, and the cells were in a good state, had viability of 92%, and were at a density of 2×10^5 cells/400 μL.
The test compounds were dissolved with PBS and then diluted with complete medium for primary liver cells to various concentration gradients.
The cells was added with 100 μL of the test compound solution prepared according to the set concentration gradients (the test compounds was first prepared with PBS into a stock solution, which was then diluted to the set concentration gradients with complete medium) and incubated at 37° C. in the dark for 30 min.
After incubation, the cells were washed once with 500 μL of PBS.
The cells were added with typsin to remove fluorescence on the cell surface.
The cells were washed again with 500 μL of PBS and detected on machine.

ASGPR receptor [2] = molecular target: T2, ASGPR receptor (Homo sapiens, UniProt P07306+P07307); experiment: Binding of Cy5-labelled ligands to ASGPR on HepG2 cell line (Kd); details: HepG2 cells, incubated at room temperature in the dark for 30 min
T2 construct: HepG2 cells grown to confluence of greater than 80%; endogenous in cells; host or cells: HepG2
T2 sequence (P07306 1-291): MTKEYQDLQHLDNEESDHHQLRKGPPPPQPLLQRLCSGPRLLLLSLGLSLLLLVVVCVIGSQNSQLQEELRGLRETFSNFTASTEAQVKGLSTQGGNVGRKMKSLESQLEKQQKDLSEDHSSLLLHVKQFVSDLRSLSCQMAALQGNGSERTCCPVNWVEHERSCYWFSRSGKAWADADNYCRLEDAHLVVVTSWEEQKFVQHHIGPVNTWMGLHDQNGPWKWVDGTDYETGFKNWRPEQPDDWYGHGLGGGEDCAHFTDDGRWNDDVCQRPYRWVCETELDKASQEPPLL
T2 sequence (P07307 1-311): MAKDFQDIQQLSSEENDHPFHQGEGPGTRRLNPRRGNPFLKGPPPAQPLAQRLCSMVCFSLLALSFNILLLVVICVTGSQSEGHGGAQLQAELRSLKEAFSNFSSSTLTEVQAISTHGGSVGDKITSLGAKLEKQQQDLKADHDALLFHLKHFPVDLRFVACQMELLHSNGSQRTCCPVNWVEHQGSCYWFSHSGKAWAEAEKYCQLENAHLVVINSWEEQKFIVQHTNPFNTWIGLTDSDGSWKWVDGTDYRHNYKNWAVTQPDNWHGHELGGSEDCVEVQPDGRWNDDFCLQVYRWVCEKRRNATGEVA
Method: as §1
The ligand-receptor dissociation constant (Kd, which is the drug concentration required for half of the maximum effect, i.e. 50% of the receptors are occupied) was used as a measure of ligand-receptor binding capacity, and the lower the Kd value, the higher the binding capacity.
• 1. HepG2 cells grown to confluence of greater than 80% and in a good state were digested, centrifuged and counted. • 2. The test compounds were diluted with PBS to various concentration gradients. • 3. The cells were washed once with PBS, added with 100 μL of the prepared compounds, and incubated at room temperature in the dark for 30 min. • 4. After incubation, the cells were washed twice with 1 mL of PBS and detected on machine.

pKd (ASGPR receptor [1]) | SMILES | pKd (ASGPR receptor [2])
9.39 | CC[N+]1=C(/C=C/C=C/C=C2/c3ccccc3N(CCCCCC(=O)NCCNC(=O)CCCCCCCCCCCNC(COCCC(=O)NCCCNC(=O)CCCCOC3OC(CO)C(O)C(O)C3NC(C)=O)(COCCC(=O)NCCCNC(=O)CCCCOC3OC(CO)C(O)C(O)C3NC(C)=O)COCCC(=O)NCCCNC(=O)CCCCOC3OC(CO)C(O)C(O)C3NC(C)=O)C2(C)C)C(C)(C)c2ccccc21 (centres unmarked) [PC-Cy5, reference compound] | 7.40
9.16 | CC[N+]1=C(/C=C/C=C/C=C2/c3ccccc3N(CCCCCC(=O)NCCCC(=O)CCCCCCCCCCC(=O)N3C[C@H](OCC(=O)NCCOCCOCCOC4OC(CO)C(O)C(O)C4NC(C)=O)C[C@H]3C(=O)NC(COCCC(=O)NCCOCCOCCOC3OC(CO)C(O)C(O)C3NC(C)=O)COCCC(=O)NCCOCCOCCOC3OC(CO)C(O)C(O)C3NC(C)=O)C2(C)C)C(C)(C)c2ccccc21 (some centres unmarked) [TC12A-Cy5] | 
8.90 | CC[N+]1=C(/C=C/C=C/C=C2/c3ccccc3N(CCCCCC(=O)NCCNC(=O)CCC(=O)Nc3cc(C(=O)NCCOCCOC4OC(CO)C(O)C(O)C4NC(C)=O)cc(C(=O)Nc4cc(C(=O)NCCOCCOC5OC(CO)C(O)C(O)C5NC(C)=O)cc(C(=O)NCCOCCOC5OC(CO)C(O)C(O)C5NC(C)=O)c4)c3)C2(C)C)C(C)(C)c2ccccc21 (centres unmarked) [TC17A-Cy5] | 
9.30 | CC[N+]1=C(/C=C/C=C/C=C2/c3ccccc3N(CCCCCC(=O)NCCNC(=O)CCCCCCCCCCCNC(=O)[C@H](CNC(=O)C(C)(COCC(=O)NCCOCCOC3OC(CO)C(O)C(O)C3NC(C)=O)COCC(=O)NCCOCCOC3OC(CO)C(O)C(O)C3NC(C)=O)NC(=O)C(C)(CCCC(=O)NCCOCCOC3OC(CO)C(O)C(O)C3NC(C)=O)COCC(=O)NCCOCCOC3OC(CO)C(O)C(O)C3NC(C)=O)C2(C)C)C(C)(C)c2ccccc21 (some centres unmarked) [TEC06A-Cy5] | 

SMILES | pKd (ASGPR receptor [1]) | pKd (ASGPR receptor [2])
CC[N+]1=C(/C=C/C=C/C=C2/c3ccccc3N(CCCCCC(=O)NCCNC(=O)CCCCCCCCCCC(=O)N3C[C@H](OCC(=O)NCCOCCOC4OC(CO)C(O)C(O)C4NC(C)=O)C[C@H]3C(=O)NC(C)(COCCC(=O)NCCOCCOC3OC(CO)C(O)C(O)C3NC(C)=O)COCCC(=O)NCCOCCOC3OC(CO)C(O)C(O)C3NC(C)=O)C2(C)C)C(C)(C)c2ccccc21 (some centres unmarked) [TC10A-Cy5] | 9.06 | 
CC[N+]1=C(/C=C/C=C/C=C2/c3ccccc3N(CCCCCC(=O)NCCNC(=O)CCNC(=O)[C@H](CNC(=O)C(C)(COCC(=O)NCCOCCOC3OC(CO)C(O)C(O)C3NC(C)=O)COCC(=O)NCCOCCOC3OC(CO)C(O)C(O)C3NC(C)=O)NC(=O)C(C)(COCC(=O)NCCOCCOC3OC(CO)C(O)C(O)C3NC(C)=O)COCC(=O)NCCOCCOC3OC(CO)C(O)C(O)C3NC(C)=O)C2(C)C)C(C)(C)c2ccccc21 (some centres unmarked) [TEC02A-Cy5] | 9.70 | 7.68
